Data on 15 compounds can be found in patent US20250042886A1, “BIS(HETERO)ARYL THIOETHER OXADIAZINES AS FUNGICIDAL COMPOUNDS” (Bayer Aktiengesellschaft, priority 2021, published 2025).

A short description of data set [1]: Measurement of Log P values by HPLC on reversed phase columns (EEC directive 79/831 Annex V.A8). It is filed as physicochemical. The following applies: Table 1, compounds of formula (I); method [a]: LC-UV, acidic range, 0.1% formic acid in water and acetonitrile.
For data set [2], the system named is Botrytis cinerea. Description: In vivo preventive test on Botrytis cinerea (grey mould). The following applies: 500 ppm of active ingredient, sprayed on young gherkin or cabbage plants 24 h before inoculation, evaluated 4 to 5 days after inoculation, read-out: efficacy. In a few lines:
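Young plants of gherkin or cabbage were sprayed with water-diluted compound formulated in DMSO/acetone/Tween 80, with solvent-only controls. Inoculation followed 24 h later by spraying an aqueous spore suspension of Botrytis cinerea onto leaves.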

For data set [3], the system named is Colletotrichum lindemuthianum. Put plainly: In vivo preventive test on Colletotrichum lindemuthianum (leaf spot on bean). The following applies: 168 h, 500 ppm of active ingredient, sprayed on young bean plants 24 h before inoculation, evaluated 7 days after inoculation, read-out: efficacy. The method, then:
B-4. […] The active ingredients were made soluble and homogenized in a mixture of Dimethyl sulfoxide/Acetone//Tween® 80 and then diluted in water to the desired concentration. The young plants of bean were treated by spraying the active ingredient prepared as described above. Control plants were treated only with an aqueous solution of Acetone/Dimethyl sulfoxide/Tween® 80. After 24 hours, the plants were contaminated by spraying the leaves with an aqueous suspension of Colletotrichum lindemuthianum spores.

Data set [4] concerns Colletotrichum lindemuthianum. Put plainly: Colletotrichum lindemuthianum in vitro cell test. The following applies: 144 h, liquid culture, 6 days incubation, read-out: efficacy (inhibition of fungal growth); for inhibition at 20 ppm: 20 ppm of active ingredient; for inhibition at 50 µM: 50 μMol/l of active ingredient. It is filed as cell-based. In a few lines: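 Inhibition of spore germination and mycelium growth, as absorbance relative to untreated wells, was read on day 6. Compounds from DMSO stocks were added to a spore suspension in glucose/peptone/yeast extract broth.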

A further data set concerns Alternaria brassicae. Put plainly: In vivo preventive test on Alternaria brassicae (leaf spot on radish or cabbage). The following applies: 500 ppm of active ingredient, sprayed on young radish or cabbage plants 24 h before inoculation, evaluated 3 to 4 days after inoculation, read-out: efficacy. The method, then: B-1. […] The active ingredients were made soluble and homogenized in a mixture of Dimethyl sulfoxide/Acetone//Tween® 80 and then diluted in water to the desired concentration. The young plants of radish or cabbage were treated by spraying the active ingredient prepared as described above. Control plants were treated only with an aqueous solution of Acetone/Dimethyl sulfoxide/Tween® 80. After 24 hours, the plants were contaminated by spraying the leaves with an aqueous suspension of Alternaria brassicae spores.

A further data set deals with Alternaria alternata. Description: Alternaria alternata in vitro cell test. Type of data set: cell-based. The following applies: 120 h, 50 μMol/l of active ingredient, liquid culture, 5 days incubation, read-out: efficacy (inhibition of fungal growth). The method, then:
B-5. Alternaria alternata In Vitro Cell Test • Solvent: DMSO • Culture medium: 14.6 g anhydrous D-glucose (VWR), 7.1 g Mycological Peptone (Oxoid), 1.4 g granulated Yeast Extract (Merck), QSP 1 liter • Inoculum: spores suspension Fungicides were solubilized in DMSO and the solution used to prepare the required range of concentrations. […] A spore suspension of A. alternata was prepared and diluted to the desired spore density. Fungicides were evaluated for their ability to inhibit spore germination and mycelium growth in liquid culture assay. The compounds were added in the desired concentration to the culture medium with spores. After 5 days incubation, fungi-toxicity of compounds was determined by spectrometric measurement of mycelium growth. Inhibition of fungal growth was determined by comparing the absorbance values in wells containing the fungicides with the absorbance in control wells without fungicides.

The test system of a further data set is Pyricularia oryzae. Description: microbe, parasite or virus in culture. Type of data set: cell-based. The following applies: 120 h, read-out: efficacy (inhibition of fungal growth), 50 μMol/l of active ingredient, liquid culture, 5 days incubation.
The next data set concerns Pyrenophora teres. Put plainly: Pyrenophora teres in vitro cell test. Type of data set: cell-based. As to conditions: 144 h, 50 μMol/l of active ingredient, liquid culture, 6 days incubation, read-out: efficacy (inhibition of fungal growth). In a few lines: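 Compounds in DMSO were added to P. teres spore suspensions in glucose/peptone/yeast-extract liquid medium, testing inhibition of spore germination and mycelium growth. After 6 days, mycelium growth was read by absorbance. Inhibition was calculated relative to fungicide-free control wells.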

Data set [5] deals with Botrytis cinerea. Put plainly: Botrytis cinerea in vitro cell test. The following applies: 144 h, 50 μMol/l of active ingredient, liquid culture, 6 days incubation, read-out: efficacy (inhibition of fungal growth). It is filed as cell-based. In a few lines:
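Liquid-culture germination/growth test: spore suspension in synthetic medium (salts, urea, KNO3, saccharose, trace elements, thiamine, biotin) with compound dissolved in DMSO. Absorbance of mycelial growth measured at day 6, compared with untreated wells to give inhibition.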

The next data set deals with Fusarium culmorum. Put plainly: Fusarium culmorum in vitro cell test. As to conditions: 120 h, 50 μMol/l of active ingredient, liquid culture, 5 days incubation, read-out: efficacy (inhibition of fungal growth). Type of data set: cell-based. In a few lines:
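Spores in liquid mineral-salts/saccharose medium exposed to compounds (DMSO ≤1% final) for 5 days. Mycelium growth measured spectrometrically, with inhibition derived from absorbance relative to fungicide-free control wells.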

The term chromatographic logP denotes a lipophilicity value derived from retention on a column.

`FC(F)(F)c1ccc(Sc2nnc(Cl)cc2C2=NOC[C@@H](Cc3ccc(Cl)cc3Cl)N2)cc1` (racemic) [Compound I-003] returned a chromatographic logP in [1] of 4.93. Also, the pest or weed control at 500 ppm in the data set on Botrytis cinerea [2] was 90 to 100%; in [3], 70 to 79%.

In the case of `Cc1ccc(C[C@H]2CON=C(c3nc(C)ncc3Sc3cccc(OC(F)(F)F)c3)N2)c(Cl)c1` (racemic) [Compound I-021], in [1], the chromatographic logP was found to be 5.46. The pest or weed control at 500 ppm in data set [3] fell in the range of 70 to 79%. Also, in data set [4], the inhibition at 20 ppm lay in the range of 70 to 79%.

Take `Cc1ccc(C[C@H]2CON=C(c3nc(C)ncc3Sc3cccc(OC(F)(F)F)c3)N2)c(C)c1` (racemic) [Compound I-026]: in data set [1], the chromatographic logP was 5.39. In addition, the pest or weed control at 500 ppm in data set [3] is 80 to 89%. In addition, the inhibition at 20 ppm in [4] fell in the range of 70 to 79%.

On to `Cc1ccc(C[C@@H]2CON=C(c3cc(Cl)nnc3Sc3ccc(C(F)(F)F)cc3)N2)c(C)c1` (racemic) [Compound I-027], for which the chromatographic logP in [1] turned out to be 5.31. For the same compound, the pest or weed control at 500 ppm (in the data set with Alternaria brassicae; in data set [3]) was 90 to 100% each time.

As to `Cc1ccc([C@H]2CON=C(c3c(Sc4cccc(F)c4)nnc4ccccc34)N2)s1` (racemic) [Compound I-042], the chromatographic logP in [1] turned out to be 3.27. For the same compound, the pest or weed control at 500 ppm in the data set with Alternaria brassicae fell in the range of 90 to 100%; with Botrytis cinerea [2], 90 to 100%; in data set [3] it was 70 to 79%. The inhibition at 50 µM (with Alternaria alternata; in the data set on Pyricularia oryzae; in [4]; in the data set on Pyrenophora teres; in the data set on Botrytis cinerea [5]; in the data set on Fusarium culmorum) was 90 to 100% in each case.

In turn, `Cc1ccc([C@@H]2CON=C(c3c(Sc4cccc(C(F)(F)F)c4)nnc(C)c3C)N2)s1` (racemic) [Compound I-044] gave a chromatographic logP in data set [1] of 3.36. The pest or weed control at 500 ppm (in the data set with Botrytis cinerea [2]; in data set [3]) was 90 to 100% in each case. In addition, the inhibition at 50 µM in the data set with Alternaria alternata was in the range of 70 to 79%; in the data set with Pyricularia oryzae, 80 to 89%; in [4], 90 to 100%; in the data set with Pyrenophora teres it was 90 to 100%; in the data set with Botrytis cinerea [5], 90 to 100%.

In [1], `Cc1cccc(Sc2nnc3ccccc3c2C2=NOC[C@H](c3ccc(C)s3)N2)c1` (racemic) [Compound I-062] registered a chromatographic logP of 3.47. Further, the pest or weed control at 500 ppm (in the data set with Alternaria brassicae; in the data set with Botrytis cinerea [2]; in [3]) was 90 to 100% each time. For the same compound, the inhibition at 50 µM lay within 90 to 100% in the data set on Alternaria alternata; 80 to 89% in the data set with Pyricularia oryzae; 90 to 100% in [4]; 90 to 100% in the data set with Pyrenophora teres; 90 to 100% with Botrytis cinerea [5]; 90 to 100% in the data set on Fusarium culmorum.

`Cc1cccc(Sc2nnc3ccccc3c2C2=NOC[C@H](c3ccc(C)s3)N2)n1` (racemic) [Compound I-066] came in with a chromatographic logP in data set [1] of 2.69. Moreover, the pest or weed control at 500 ppm in the data set with Alternaria brassicae fell in the range of 80 to 89%; in the data set on Botrytis cinerea [2], 90 to 100%; in data set [3], 70 to 79%. Further, the inhibition at 50 µM is 70 to 79% in the data set on Pyricularia oryzae, 90 to 100% in [4], 90 to 100% with Botrytis cinerea [5] and 70 to 79% with Fusarium culmorum.

Take `Cc1cc([C@H]2CON=C(c3c(Sc4ccccc4)nnc(C)c3C)N2)c(C)s1` (racemic) [Compound I-069]: the chromatographic logP in data set [1] stood at 3.03. Further, the pest or weed control at 500 ppm with Alternaria brassicae fell in the range of 80 to 89%; in the data set with Botrytis cinerea [2], 90 to 100%; in data set [3], 70 to 79%. Moreover, the inhibition at 50 µM in the data set on Alternaria alternata lay within 80 to 89%; in the data set on Pyricularia oryzae it was 80 to 89%; in data set [4], 90 to 100%; in the data set on Botrytis cinerea [5], 90 to 100%; with Fusarium culmorum, 90 to 100%.

As for `Cc1cccc(Sc2nnc(C)c(C)c2C2=NOC[C@H](c3cc(C)sc3C)N2)c1` (racemic) [Compound I-078], the chromatographic logP in data set [1] turned out to be 3.33. Besides, the pest or weed control at 500 ppm (in the data set with Alternaria brassicae; in the data set with Botrytis cinerea [2]; in data set [3]) was 90 to 100% in each case. Besides, the inhibition at 50 µM is 80 to 89% in the data set on Alternaria alternata; 80 to 89% with Pyricularia oryzae; 90 to 100% in data set [4]; 90 to 100% in the data set with Pyrenophora teres; 90 to 100% in the data set with Botrytis cinerea [5]; 80 to 89% in the data set with Fusarium culmorum.

For `COc1cccc(Sc2nnc(C)c(C)c2C2=NOC[C@@H](c3cc(C)sc3C)N2)c1` (racemic) [Compound I-079], the chromatographic logP in [1] stood at 3.11. In addition, the pest or weed control at 500 ppm in the data set with Botrytis cinerea [2] was in the range of 90 to 100%; in data set [3] it was 80 to 89%. For the same compound, the inhibition at 50 µM was in the range of 70 to 79% in the data set on Alternaria alternata; 70 to 79% in the data set on Pyricularia oryzae; 90 to 100% in data set [4]; 80 to 89% in the data set on Pyrenophora teres; 90 to 100% in the data set with Botrytis cinerea [5]; 90 to 100% in the data set on Fusarium culmorum.

For the compound `COc1cccc(Sc2nnc3ccccc3c2C2=NOC[C@H](c3ccc(C)s3)N2)c1` (racemic) [Compound I-090], the chromatographic logP in data set [1] is 3.21. Moreover, the figures for the pest or weed control at 500 ppm (in the data set on Botrytis cinerea [2]; in data set [3]) were 90 to 100% and 80 to 89%, respectively. Also, the inhibition at 50 µM lay in the range of 90 to 100% in [4], 80 to 89% with Pyrenophora teres, 90 to 100% in the data set with Botrytis cinerea [5] and 90 to 100% in the data set on Fusarium culmorum.

`Cc1cccc(Sc2nnc(C)c(C)c2C2=NOCC(c3ccc(C)s3)N2)c1` (racemic) [Compound I-095, (5RS)-3-[5,6-dimethyl-3-(m-tolylsulfanyl)pyridazin-4-yl]-5-(5-methyl-2-thienyl)-5,6-dihydro-4H-1,2,4-oxadiazine] gave a chromatographic logP in data set [1] of 2.99. The pest or weed control at 500 ppm in the data set with Alternaria brassicae lay in the range of 90 to 100%; with Botrytis cinerea [2], 90 to 100%; in data set [3] it was 70 to 79%. Besides, the inhibition at 50 µM in the data set with Pyricularia oryzae lay within 70 to 79%; in [4] it was 90 to 100%; in the data set with Botrytis cinerea [5], 90 to 100%; in the data set on Fusarium culmorum, 70 to 79%.

In turn, `Cc1ccc([C@H]2CON=C(c3c(Sc4ccccc4)nnc4ccccc34)N2)s1` (racemic) [Compound I-097] returned a chromatographic logP in data set [1] of 3.14. Moreover, the pest or weed control at 500 ppm was in the range of 80 to 89% with Alternaria brassicae and 90 to 100% with Botrytis cinerea [2]. The inhibition at 50 µM in the data set with Alternaria alternata fell in the range of 80 to 89%; with Pyricularia oryzae, 80 to 89%; in [4], 90 to 100%; in the data set on Pyrenophora teres, 90 to 100%; in the data set with Botrytis cinerea [5] it was 90 to 100%; in the data set on Fusarium culmorum, 80 to 89%.

In turn, `Cc1ccc([C@H]2CON=C(c3c(Sc4ccccc4C)nnc4ccccc34)N2)s1` (racemic) [Compound I-110] came in with a chromatographic logP in data set [1] of 3.45. Moreover, the pest or weed control at 500 ppm with Alternaria brassicae was in the range of 90 to 100%; with Botrytis cinerea [2], 90 to 100%; in data set [3], 70 to 79%. Besides, in the data set on Botrytis cinerea [5], the inhibition at 50 µM is 90 to 100%.
